From patent publication US9072778B2, “Treatment regimen for N-MYC, c-MYC, and L-MYC amplified and overexpressed tumors” (UNIVERSITY OF HAWAII, priority 2005, dated 2015)

Assays:
[1] = system: LAN-1 cells; experiment: Polyamine pool analysis in inhibitor-treated LAN-1 cells; assay type: cell-based, human; conditions: DFMO = 5 mM, SAM486A = 10 μM, Spd = 10 μM
Experimental: Combined inhibition of both enzymes decreased polyamine pools to various degrees, and exogenous supplementation of Spd (10 μM) to cell cultures led to a substantial increase in Spd. […] In untreated control cells, the levels of Put and Spd decreased during exponential cell growth and proliferation (day 0 to day 3), which is also consistent with a decrease in ODC and AdoMetDC enzyme activities (FIGS. 3d and 3e). Spm levels decreased in untreated LAN-1 cells and remained the same in NMB-7 cells (Table 1).
(§1) Human NB cell lines were provided by Dr. Robert Seeger (LAN-1; University of California, Los Angeles, Calif.), Dr. Nai-Kong Cheung (NMB-7; Memorial Sloan-Kettering Cancer Center, NY), and the American Type Culture Collection (SK-N-SH; ATCC, Manassas, Va.). Cells were maintained in RPMI 1640 (Biosource, Rockeville, Md.) containing 10% heat-inactivated fetal bovine serum (FBS) (Invitrogen, Carlsbad, Calif.), penicillin (100 IU/ml) and streptomycin (100 μg/ml). If cells were treated with exogenous Spd, 1 mM of aminoguanidine was included as an inhibitor of serum polyamine oxidation. […] For growth and proliferation inhibition, polyamine pool, and cell cycle studies, 10 μM Spd was added together with inhibitors, and cells were assayed on days 2 and/or 3.
Intracellular polyamines were extracted from cell pellets by a method known in the art. In brief, cells were washed and centrifuged. After sonication and centrifugation, 250 μl of supernatant, 100 μl of saturated sodium carbonate, and 300 μl of 25 mg/ml dansyl chloride (5-dimethylamino-naphthalene-1-sulfonyl chloride) (Fluka, Switzerland) were mixed and analyzed via reverse phase HPLC using a C18 reverse-phase analytical column (Waters, Milford, Mass.). The effluent from the column was monitored at 510 nm (excitation at 330 nm). Polyamine levels were determined using appropriate standards. The samples were normalized in 0.2 N sodium hydroxide and the amount of total protein per sample was measured using the Bradford assay (70). Polyamine levels are expressed as nmol per mg of total cellular protein.

[2] = system: NMB-7 cells; experiment: Cell cycle phase distribution (propidium iodide), NMB-7; assay type: cell-based, human; conditions: DFMO = 5 mM, SAM486A = 10 μM, Spd = 10 μM, mean ± SD
Description: This profile, which is typical for cell cycle arrest at G1, was enhanced by the combination of both inhibitors, with the majority of cells in G1 (˜71-73%), a reduced number of cells in S phase (˜20-28%), and a small portion in G2/M (˜2-7%).
as §1

[3] = system: LAN-1 cells; experiment: Cell growth and proliferation (cell number) and morphology, LAN-1; assay type: cell-based, human; conditions: LAN-1, 3 days; 5 mM DFMO, 10 μM SAM486A
Experimental: (§2) Cell numbers are expressed as percentage (%) of control cell growth and proliferation. Each sample was measured in duplicate and the data represent the mean of three separate determinations±SD. The observed growth and proliferation inhibition of LAN-1 and NMB-7 cells was accompanied by dramatic alterations in cell morphology (FIG. 4b). […] On day 3, both untreated and treated cells were washed free of inhibitor by washing twice with PBS, reseeded in new medium (NM) (solid black arrow) without inhibitors at the starting cell density (dashed black arrow) and the experiment was continued for an additional 7 days. While the untreated LAN-1 and NMB-7 cells grew normally and reached similar cell densities after an additional 3 days (day 6 of the experiment), the initially treated LAN-1 and NMB-7 cells resumed proliferation only slowly and reached about 30% and 58% of control cell growth and proliferation, respectively, on day 10 of the experiment (FIG. 6). Cell numbers were determined using a hemocytometer and trypan blue reagent, and each data point is representative of three separate determinations±SD. […] (not shown). Human NB cell lines were provided by Dr. Robert Seeger (LAN-1; University of California, Los Angeles, Calif.), Dr. Nai-Kong Cheung (NMB-7; Memorial Sloan-Kettering Cancer Center, NY), and the American Type Culture Collection (SK-N-SH; ATCC, Manassas, Va.). […]

[4] = system: NMB-7 cells; experiment: Cell growth and proliferation (cell number) and morphology, NMB-7; assay type: cell-based, human; conditions: NMB-7, 3 days; 5 mM DFMO, 10 μM SAM486A
Experimental: as §2

[5] = system: retinoblastoma protein Rb; experiment: Western blot of Rb phosphorylation in inhibitor-treated NB cells; assay type: cell-based, human; conditions: LAN-1 and NMB-7; days 2 and 3
Experimental: To further investigate the mechanism that regulates G1 arrest in LAN-1 and NMB-7 cells, and to define the changes in associated protein responses, the cell cycle-related proteins p21^Waf1/Cip1, p27^Kip1, p53, Rb, and MYCN in NB cell lysates were studied. Cells were analyzed on days 1, 2, and 3. Equal amounts of total protein were loaded in all experiments. Proteins were scanned and the ratio of hypophosphorylated Rb (pRb) (lower band):hyperphosphorylated Rb (ppRb) (upper band) was calculated (b). MYCN bands were quantified and normalized relative to β-actin. Values are presented as percentage (%) of controls of day 1, 2 or 3. (c). The data are representative of at least three independent experiments.
The retinoblastoma protein Rb can be regulated through the action of p27^Kip1. Rb phosphorylation reduces the levels of functional Rb/E2F repressor complexes and activates E2F-responsive promoters important for moving the cell through the G1/S phase of the cell cycle. […] Rb hypophosphorylation was further confirmed with total Rb showing a visible mobility shift from a hyperphosphorylated form (upper band) to a hypophosphorylated form (lower band). […] Hypophosphorylation of Rb is a known consequence of p27^Kip1 induction, and this is in strong agreement with our findings.

[6] = SAM486A, Phase II, relapsed or refractory non-Hodgkin's lymphoma; cited from earlier work

| Compound | Polyamine pools PUT ([1]; LAN-1, Day 2) [NMOL/MG TOTAL PROTEIN] | Polyamine pools SPD ([1]; LAN-1, Day 2) [NMOL/MG TOTAL PROTEIN] | Polyamine pools SPM ([1]; LAN-1, Day 2) [NMOL/MG TOTAL PROTEIN] | Polyamine pools PUT ([1]; LAN-1, Day 3) [NMOL/MG TOTAL PROTEIN] | Polyamine pools SPD ([1]; LAN-1, Day 3) [NMOL/MG TOTAL PROTEIN] | Polyamine pools SPM ([1]; LAN-1, Day 3) [NMOL/MG TOTAL PROTEIN] | Cell cycle G1 ([2]; NMB-7, day 2) [% TOTAL CELLS] | Cell cycle G2/M ([2]; NMB-7, day 2) [% TOTAL CELLS] | Cell cycle S ([2]; NMB-7, day 2) [% TOTAL CELLS] | Cell cycle G1 ([2]; NMB-7, day 3) [% TOTAL CELLS] | Cell cycle G2/M ([2]; NMB-7, day 3) [% TOTAL CELLS] | Cell cycle S ([2]; NMB-7, day 3) [% TOTAL CELLS] | cell morphology (FIG. 4b) [3] | cell morphology (FIG. 4b) [4] | Rb phosphorylation (Ser795, Ser807/811) [5] | most frequent side effects [6] |
| --- | --- | --- | --- | --- | --- | --- | --- | --- | --- | --- | --- | --- | --- | --- | --- | --- |
| NCCC[C@](N)(C(=O)O)C(F)F [DFMO, α-difluoromethylornithine] | 0.3 | 2.2 | 8.7 | 0.0 | 1.9 | 8.1 | 60.3 ± 3.9 | 8.4 ± 2.9 | 31.3 ± 6.5 | 58.8 ± 2.6 | 10.2 ± 3.9 | 31.0 ± 6.3 | changed into spindle-like cells with neurite-like extensions | formed large polynucleate cell aggregates with only very short extensions | strong hypophosphorylation of Rb |  |
| N=C(N)c1cccc2c1CC/C2=N\N=C(N)N [SAM486A, 4-amidinoindan-1-one 2′-amidinohydrazone] | 48.5 | 5.5 | 4.2 | 43.7 | 5.0 | 3.5 | 54.1 ± 4.3 | 9.3 ± 3.2 | 36.6 ± 6.0 | 56.4 ± 6.5 | 8.5 ± 1.4 | 35.2 ± 7.0 |  |  | much less pronounced | nausea, vomiting, diarrhea, asthenia, abdominal pain, and flushing |
